Data on 26 compounds can be found in patent EP3782997A1, “FUSED PYRIMIDINE COMPOUNDS AND PHARMACEUTICAL COMPOSITIONS THEREOF FOR THE TREATMENT OF FIBROTIC DISEASES” (Galapagos N.V., priority 2019, dated 2021).

In general, IC50 refers to the concentration that gives 50% inhibition.

The target in this test is hENPP2 (Homo sapiens, UniProt Q13822). The experiment in a line: Human ENPP2 (hENPP2) biochemical assay using LPC as substrate. Conditions: 150 µM LPC (palmitoyl 16:0), 37°C for 30 min. In outline:
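Enzyme at 1 or 3 µg/mL final in Tris-HCl pH 8.5, NaCl, KCl, CaCl2, fatty-acid-free BSA; reaction started with 150 µM LPC 16:0 (as added), 30 min at 37°C. Released choline developed with choline oxidase/peroxidase/TOOS/4-aminoantipyrine plus EGTA stop, read at 555 nm after 30 min; 1/3 dilutions from 50 µM give IC50.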
On to `Cc1cc(C)cc(Nc2ncc3c(n2)CN(C2CC4CCC(C2)N4C(=O)c2ccc4[nH]nnc4c2)C3)c1` (centres unmarked) [compound 114, 1H-benzotriazol-5-yl-[3-[2-(3,5-dimethylanilino)-5,7-dihydropyrrolo[3,4-d]pyrimidin-6-yl]-8-azabicyclo[3.2.1]octan-8-yl]methanone], for which the IC50 is 100 to 500 nM.
`Cc1cc(C)cc(Nc2ncc3c(n2)CN([C@H]2CCN(C(=O)c4cc5nn[nH]c5cc4F)[C@H](C)C2)C3)c1` [compound 116, [(2R,4S)-4-[2-(3,5-dimethylanilino)-5,7-dihydropyrrolo[3,4-d]pyrimidin-6-yl]-2-methyl-1-piperidyl]-(6-fluoro-1H-benzotriazol-5-yl)methanone]: the IC50 was in the range of 0.01 to 100 nM.
With `COc1cc2[nH]nnc2cc1C(=O)N1CC[C@H](N2Cc3cnc(Nc4cc(C)cc(C)c4)nc3C2)C[C@H]1C` [compound 120, [(2R,4S)-4-[2-(3,5-dimethylanilino)-5,7-dihydropyrrolo[3,4-d]pyrimidin-6-yl]-2-methyl-1-piperidyl]-(6-methoxy-1H-benzotriazol-5-yl)methanone] the figure was 0.01 to 100 nM.
`Cc1cc(C)cc(Nc2ncc3c(n2)CN([C@H]2CCN(C(=O)c4cccc(-c5nnn[nH]5)c4)[C@@H](C)C2)C3)c1` [compound 123, [(2S,4S)-4-[2-(3,5-dimethylanilino)-5,7-dihydropyrrolo[3,4-d]pyrimidin-6-yl]-2-methyl-1-piperidyl]-[3-(1H-tetrazol-5-yl)phenyl]methanone] had an IC50 of more than 1000 nM.
As for `COc1cc(Nc2ncc3c(n2)CN([C@@H]2CCN(C(=O)c4ccc5[nH]nnc5c4)[C@H](C)C2)C3)ccc1F` [compound 126, 1H-benzotriazol-5-yl-[(2R,4R)-4-[2-(4-fluoro-3-methoxy-anilino)-5,7-dihydropyrrolo[3,4-d]pyrimidin-6-yl]-2-methyl-1-piperidyl]methanone], the figure is 0.01 to 100 nM; as for `COc1cc(Nc2ncc3c(n2)CN([C@@H]2CCN(C(=O)c4ccc5[nH]nnc5c4)[C@H](C)C2)C3)cc(C(F)(F)F)c1` [compound 127, 1H-benzotriazol-5-yl-[(2R,4R)-4-[2-[3-methoxy-5-(trifluoromethyl)anilino]-5,7-dihydropyrrolo[3,4-d]pyrimidin-6-yl]-2-methyl-1-piperidyl]methanone], 0.01 to 100 nM.
For `C[C@@H]1C[C@@H](N2Cc3cnc(Nc4cc(C#N)cc(C(F)(F)F)c4)nc3C2)CCN1C(=O)c1ccc2[nH]nnc2c1` [compound 128, 3-[[6-[(2R,4S)-1-(1H-benzotriazole-5-carbonyl)-2-methyl-4-piperidyl]-5,7-dihydropyrrolo[3,4-d]pyrimidin-2-yl]amino]-5-(trifluoromethyl)benzonitrile], the half-maximal inhibitory concentration (IC50) was in the range of 0.01 to 100 nM.
On to `C[C@@H]1C[C@H](N2Cc3cnc(Nc4cc(C(N)=O)cc(C(F)(F)F)c4)nc3C2)CCN1C(=O)c1ccc2[nH]nnc2c1` [compound 129, 3-[[6-[(2R,4R)-1-(1H-benzotriazole-5-carbonyl)-2-methyl-4-piperidyl]-5,7-dihydropyrrolo[3,4-d]pyrimidin-2-yl]amino]-5-(trifluoromethyl)benzamide], for which the IC50 lay within 0.01 to 100 nM.
Regarding `Cc1ccc(Nc2ncc3c(n2)CN([C@@H]2CCN(C(=O)c4ccc5[nH]nnc5c4)[C@H](C)C2)C3)cc1` [compound 134, 1H-benzotriazol-5-yl-[(2R,4R)-2-methyl-4-[2-(4-methylanilino)-5,7-dihydropyrrolo[3,4-d]pyrimidin-6-yl]-1-piperidyl]methanone], the IC50 lay in the range of 0.01 to 100 nM.
`C[C@@H]1C[C@H](N2Cc3cnc(Nc4ccc(Cl)cc4)nc3C2)CCN1C(=O)c1ccc2[nH]nnc2c1` [compound 135, 1H-benzotriazol-5-yl-[(2R,4R)-4-[2-(4-chloroanilino)-5,7-dihydropyrrolo[3,4-d]pyrimidin-6-yl]-2-methyl-1-piperidyl]methanone]: the IC50 was 0.01 to 100 nM.
Consider `Cc1cc(C)cc(Nc2ncc3c(n2)CN(C2CCN(C(=O)c4cc5nn[nH]c5cn4)CC2)C3)c1` [compound 140, [4-[2-(3,5-dimethylanilino)-5,7-dihydropyrrolo[3,4-d]pyrimidin-6-yl]-1-piperidyl]-(3H-triazolo[4,5-c]pyridin-6-yl)methanone], for which the IC50 fell in the range of 100 to 500 nM.
As for `CCOc1cc2[nH]nnc2cc1C(=O)N1CCC(N2Cc3cnc(Nc4cc(C)cc(C)c4)nc3C2)CC1` [compound 141, [4-[2-(3,5-dimethylanilino)-5,7-dihydropyrrolo[3,4-d]pyrimidin-6-yl]-1-piperidyl]-(6-ethoxy-1H-benzotriazol-5-yl)methanone], the figure is 0.01 to 100 nM; as for `C[C@@H]1C[C@@H](N2Cc3cnc(Nc4ccc(F)cc4)nc3C2)CCN1C(=O)c1ccc2[nH]nnc2c1` [compound 143, 1H-benzotriazol-5-yl-[(2R,4S)-4-[2-(4-fluoroanilino)-5,7-dihydropyrrolo[3,4-d]pyrimidin-6-yl]-2-methyl-1-piperidyl]methanone], 500 to 1000 nM; as for `C[C@@H]1C[C@H](N2Cc3cnc(Nc4ccc(F)cc4)nc3C2)CCN1C(=O)c1ccc2[nH]nnc2c1` [compound 144, 1H-benzotriazol-5-yl-[(2R,4R)-4-[2-(4-fluoroanilino)-5,7-dihydropyrrolo[3,4-d]pyrimidin-6-yl]-2-methyl-1-piperidyl] methanone], 0.01 to 100 nM.
As for `COC(=O)c1cccc(C(=O)N2CC[C@@H](N3Cc4cnc(Nc5cc(C)cc(C)c5)nc4C3)C[C@H]2C)c1` [compound 145, methyl 3-[(2R,4R)-4-[2-(3,5-dimethylanilino)-5,7-dihydropyrrolo[3,4-d]pyrimidin-6-yl]-2-methyl-piperidine-1-carbonyl]benzoate], the figure is more than 1000 nM.
For `Cc1cc(C)cc(Nc2ncc3c(n2)CN([C@@H]2CCN(C(=O)c4c[nH]nn4)[C@H](C)C2)C3)c1` [compound 147, [(2R,4R)-4-[2-(3,5-dimethylanilino)-5,7-dihydropyrrolo[3,4-d]pyrimidin-6-yl]-2-methyl-1-piperidyl]-(1H-triazol-4-yl)methanone], the IC50 lay within 0.01 to 100 nM.
Consider `COc1ccc(Nc2ncc3c(n2)CN([C@@H]2CCN(C(=O)c4ccc5[nH]nnc5c4)[C@H](C)C2)C3)cc1` [compound 149, 1H-benzotriazol-5-yl-[(2R,4R)-4-[2-(4-methoxyanilino)-5,7-dihydropyrrolo[3,4-d]pyrimidin-6-yl]-2-methyl-1-piperidyl] methanone], for which the IC50 is 0.01 to 100 nM.
Compound `C[C@@H]1C[C@H](N2Cc3cnc(Nc4ccc(S(F)(F)(F)(F)F)cc4)nc3C2)CCN1C(=O)c1ccc2[nH]nnc2c1` [compound 150, 1H-benzotriazol-5-yl-[(2R,4R)-2-methyl-4-[2-[4-(pentafluoro-λ^6-sulfanyl)anilino]-5,7-dihydropyrrolo[3,4-d]pyrimidin-6-yl]-1-piperidyl]methanone] yielded an IC50 of 0.01 to 100 nM.
In turn, `COc1cc(Nc2ncc3c(n2)CN([C@@H]2CCN(C(=O)c4ccc5[nH]nnc5c4)[C@H](C)C2)C3)cc(OC)c1` [compound 151, 1H-benzotriazol-5-yl-[(2R,4R)-4-[2-(3,5-dimethoxyanilino)-5,7-dihydropyrrolo[3,4-d]pyrimidin-6-yl]-2-methyl-1-piperidyl]methanone] showed an IC50 of 0.01 to 100 nM.
`C[C@@H]1C[C@H](N2Cc3cnc(Nc4ccc(C(F)(F)F)cc4)nc3C2)CCN1C(=O)c1ccc2[nH]nnc2c1` [compound 152, 1H-benzotriazol-5-yl-[(2R,4R)-2-methyl-4-[2-[4-(trifluoromethyl)anilino]-5,7-dihydropyrrolo[3,4-d]pyrimidin-6-yl]-1-piperidyl]methanone] registered an IC50 of 0.01 to 100 nM.
As for `Cc1cc(C)cc(Nc2ncc3c(n2)CN([C@@H]2CCN(C(=O)c4ccnc(NS(C)(=O)=O)c4)[C@H](C)C2)C3)c1` [compound 154, N-[4-[(2R,4R)-4-[2-(3,5-dimethylanilino)-5,7-dihydropyrrolo[3,4-d]pyrimidin-6-yl]-2-methyl-piperidine-1-carbonyl]-2-pyridyl]methanesulfonamide], the figure is 0.01 to 100 nM; as for `Cc1cc(C)cc(Nc2ncc3c(n2)CN([C@@H]2CCN(C(=O)c4ccc(NS(C)(=O)=O)nc4)[C@H](C)C2)C3)c1` [compound 155, N-[5-[(2R,4R)-4-[2-(3,5-dimethylanilino)-5,7-dihydropyrrolo[3,4-d]pyrimidin-6-yl]-2-methyl-piperidine-1-carbonyl]-2-pyridyl]methanesulfon amide], 0.01 to 100 nM.
`Cc1cc(C)cc(Nc2ncc3c(n2)CN([C@@H]2CCN(C(=O)c4ccc5c(c4)CC(=O)N5)[C@H](C)C2)C3)c1` [compound 156, 5-[(2R,4R)-4-[2-(3,5-dimethylanilino)-5,7-dihydropyrrolo[3,4-d]pyrimidin-6-yl]-2-methyl-piperidine-1-carbonyl]indolin-2-one] displayed an IC50 of 0.01 to 100 nM.
`Cc1cc(C)cc(Nc2ncc3c(n2)CN([C@@H]2CCN(C(=O)c4ccc5[nH]c(=O)[nH]c5c4)[C@H](C)C2)C3)c1` [compound 157, 5-[(2R,4R)-4-[2-(3,5-dimethylanilino)-5,7-dihydropyrrolo[3,4-d]pyrimidin-6-yl]-2-methyl-piperidine-1-carbonyl]-1,3-dihydrobenzimidazol-2-one] returned an IC50 of 0.01 to 100 nM.
`Cc1cc(C)cc(Nc2ncc3c(n2)CN([C@@H]2CCN(C(=O)c4ccc(S(N)(=O)=O)nc4)[C@H](C)C2)C3)c1` [compound 159, 5-[(2R,4R)-4-[2-(3,5-dimethylanilino)-5,7-dihydropyrrolo[3,4-d]pyrimidin-6-yl]-2-methyl-piperidine-1-carbonyl]pyridine-2-sulfonamide] had an IC50 of 500 to 1000 nM.
As for `Cc1cc(C)cc(Nc2ncc3c(n2)CN([C@@H]2CCN(C(=O)c4cn(C)nn4)[C@H](C)C2)C3)c1` [compound 161, [(2R,4R)-4-[2-(3,5-dimethylanilino)-5,7-dihydropyrrolo[3,4-d]pyrimidin-6-yl]-2-methyl-1-piperidyl]-(1-methyltriazol-4-yl)methanone], the IC50 was more than 1000 nM.
